Assay results: US7893304B2, “Hydroquinone long-chain derivatives and/or phenoxy long-chain derivatives, and pharmaceuticals comprising the same” (Meiji Dairies Corporation, priority 2005, dated 2011)
Entries after “also recorded” stand apart in the source; their conditions may differ.

Legend:
[1] = OH radical scavenging ability test (ABTS scavenging assay, Fenton reaction); design: key to OH test: +: effective; −: >10 mM; conditions: for IC50: ABTS competition, OD at 405 nm, 45 minutes at room temperature
Protocol: Hydroxyl radical scavenging ability was measured for derivatives obtained in preparation processes A, B, and E by the following method using an ABTS (2,2′-azinobis(3-ethylbenzthiazolin-6-sulfonic acid)) scavenging assay.
In this test, hydroxyl radicals were generated in situ by the Fenton reaction. Next, competitive reactions between ABTS and the test compounds took place, and the hydroxyl radicals were scavenged by ABTS to form ABTS^+ radical cations, or were scavenged by the test compounds.
The test compounds and Trolox® were individually dissolved in ethanol and the solutions were adjusted to a final concentration of 10 mM. Each solution was then diluted severalfold to obtain solutions at concentrations ranging from 10 mM to 1 μM.
Next, 180 μl of 1:1 ethanol-water solution was added to a multi-well ELISA plate, and then 30 μl of 1 mM aqueous ABTS solution, 30 μl of 0.5 mM aqueous Fe2SO4 solution, 30 μl of a solution of each test compound in ethanol, and 30 μl of 100 mM aqueous hydrogen peroxide solution were added. The obtained solutions were left to stand for 45 minutes at room temperature, and the absorbance (OD) at 405 nm was measured. OH radical scavenging ability was determined for each test compound based on the results of these measurements. For comparison, the test compound solutions in ethanol were substituted with ethanol alone.

[2] = DPPH scavenging ability test (active organic radical species scavenging ability); design: key to DPPH test: +: effective; −: >10 mM; conditions: for IC50: percent decrease in OD at 550 nm, 400 μM DPPH in ethanol
Protocol: The ability of the derivatives obtained in preparation processes A and B to scavenge 2,2-diphenyl-1-picrylhydrazyl (DPPH) (active organic radical species scavenging ability) was measured by the following method.
Trolox® and the test compounds were individually dissolved in ethanol and the solutions were adjusted to a final concentration of 10 mM. Next, each solution was diluted severalfold to obtain solutions at concentrations ranging from 10 mM to 1 μM.
100 μl of each of the obtained ethanol solutions was added to a multi-well ELISA plate along with 100 μl of 400 μM DPPH solution in ethanol. The absorbance (optical density, OD) at 550 nm was measured for these solutions.
DPPH scavenging ability was determined for each test compound based on the results of these measurements. For comparison, the test compound solutions in ethanol were substituted with ethanol alone.
The scavenging ability of each test compound is presented as a percent decrease in OD with respect to the absorbance of the comparative sample.

E15 neurons [3] = test: Axonal growth in primary culture of CNS neurons (morphometric analysis); format: cell-based, mouse
Protocol: Fetal mouse (15 days old) cerebral hemispheres were dissected in cold Gey's balanced salt solution supplemented with glucose to isolate the neocortex. Cells were dispersed by trypsin and mechanical dissociation. Next, the cells were plated at a concentration of 200,000 cells/well onto cover slips coated with 1 μg/ml of poly-L-lysine, and the cells were cultured in a serum-containing medium (Dulbecco's modified Eagle medium, 2 mM glutamine, 1 g/l glucose, 10% fetal calf serum, and penicillin/streptomycin) in 5% CO2 at 37° C. for 24 hours.
On day 2, the medium was substituted with a chemically defined medium (Dulbecco's modified Eagle medium, 2 mM glutamine, 1 g/l glucose, 16 μg/ml putrescine, 52 ng/ml selenium, 10 μg/ml holotransferrin, 5 μg/ml insulin, and 3 ng/ml progesterone), and test compounds were added at different concentrations. The cells were cultured in 5% CO2 at 37° C. for 24 hours.
On day 3, the cells were fixed with 4% formaldehyde in phosphate buffered saline (PBS) for ten minutes. After two washes with PBS, permeation of cells was performed with 100% methanol for five minutes. […]
Photographs were randomly taken (×20 magnification) using an Axiovert 200 microscope (Zeiss) equipped with a digital camera. The axonal length of each neuron was determined using a computer-assisted image analyzer (UTHSCSA Image Tool 3.0).

E15 neurons [4] = conditions: J. Neurochem., 90 (6), 1423-31, 2004; cited from earlier work
[5] = read-out: IC50, OH radical scavenging ability
[6] = read-out: IC50 (μM), OH radical scavenging ability

IC50 [2] [mM] | Structure (SMILES) | DPPH test ([2]; Table 3, formula (1) compounds) | OH test ([1]; Table 4, formula (2) compounds) | DPPH test ([2]; Table 4, formula (2) compounds) | other results
> 10 | COc1ccc(OC)c(CCCCCCCCCCCCO)c1 [Synthesis Example A-(5), 12-(2,5-dimethoxyphenyl)dodecan-1-ol] | − (−: >10 mM) |  |  | IC50 [1, 5]: > 10000 µM; OH test ([1]; Table 3, formula (1) compounds): − (−: >10 mM)
 | COc1ccc(OC)c(CCCCCCCCCCCCCCO)c1 [Synthesis Example A-(6), 14-(2,5-dimethoxyphenyl)tetradecan-1-ol] | − (−: >10 mM) |  |  | OH test ([1]; Table 3, formula (1) compounds): − (−: >10 mM)
 | COc1ccc(OC)c(CCCCCCCCCCCCCCCO)c1 [Synthesis Example A-(7), 15-(2,5-dimethoxyphenyl)pentadecan-1-ol] | − (−: >10 mM) |  |  | OH test ([1]; Table 3, formula (1) compounds): − (−: >10 mM); axonal growth-promoting activity (in words) (E15 neurons [3]; 24 hours with compound, listed as QFA15): the most active compound; also recorded: greater axonal growth-promoting ability at a lower concentration; also recorded: effective axonal growth-promoting agent; axonal growth-promoting effect, value of FIG. 4 micrographs (E15 neurons [3]; control 85 μM, the values are: axonal length): 155 µm
 | COc1ccc(OC)c(CCCCCCCCCCCCCCCCO)c1 [Synthesis Example A-(8), 16-(2,5-dimethoxyphenyl)hexadecan-1-ol] | − (−: >10 mM) |  |  | OH test ([1]; Table 3, formula (1) compounds): − (−: >10 mM)
> 10 | COc1ccc(OC)c(CCCCCCCCCCCCCCCCCCO)c1 [Synthesis Example A-(9), 18-(2,5-dimethoxyphenyl)octadecan-1-ol] | − (−: >10 mM) |  |  | IC50 [1, 5]: > 10000 µM; OH test ([1]; Table 3, formula (1) compounds): − (−: >10 mM)
 | COc1cc(OC)c(OC)cc1CCCCCCCCCCCCCCO [Synthesis Example B-(13), 14-(2,4,5-trimethoxyphenyl)tetradecan-1-ol] | − (−: >10 mM) |  |  | 
> 10 | COc1cc(OC)c(OC)cc1CCCCCCCCCCCCO [Synthesis Example B-(14), 12-(2,4,5-trimethoxyphenyl)dodecan-1-ol] | − (−: >10 mM) |  |  | IC50 [1, 6]: 720 µM
 | COc1cc(OC)c(OC)cc1CCCCCCCCCCCCCCCO [Synthesis Example B-(15), 15-(2,4,5-trimethoxyphenyl)pentadecan-1-ol] | − (−: >10 mM) |  |  | 
 | COc1cc(OC)c(OC)cc1CCCCCCCCCCCCCCCCO [Synthesis Example B-(16), 16-(2,4,5-trimethoxyphenyl)hexadecan-1-ol] | − (−: >10 mM) |  |  | 
> 10 | COc1cc(OC)c(OC)cc1CCCCCCCCCCCCCCCCCCO [Synthesis Example B-(17), 18-(2,4,5-trimethoxyphenyl)octadecan-1-ol] | − (−: >10 mM) |  |  | IC50 [1, 6]: 720 µM
 | COc1ccc(OC)c(NCCCCCCCCCCCCCCCCO)c1 [Synthesis Example C-(21), 16-(2,5-dimethoxyphenylamino)hexadecan-1-ol] |  | − (−: >10 mM) | − (−: >10 mM) | 
 | COc1ccc(OC)c(NCCCCCCCCCCCCCCO)c1 [Synthesis Example C-(22), 14-(2,5-Dimethoxyphenylamino)tetradecan-1-ol] |  | − (−: >10 mM) | − (−: >10 mM) | 
 | COc1ccc(OC)c(NCCCCCCCCCCCCO)c1 [Synthesis Example C-(23), 12-(2,5-Dimethoxyphenylamino)dodecan-1-ol] |  | − (−: >10 mM) | − (−: >10 mM) | 
 | COc1ccc(OC)c(NCCCCCCCCCCO)c1 [Synthesis Example C-(24), 10-(2,5-Dimethoxyphenylamino)decan-1-ol] |  | − (−: >10 mM) | − (−: >10 mM) | 
 | COc1ccc(OC)c(OCCCCCCCCCCCCO)c1 [Synthesis Example D-(29), 12-(2,5-dimethoxyphenoxy)dodecan-1-ol] |  | − (−: >10 mM) | − (−: >10 mM) | 
 | COc1ccc(OC)c(OCCCCCCCCCCCCCCCCO)c1 [Synthesis Example D-(30), 16-(2,5-dimethoxyphenoxy)hexadecan-1-ol] |  | − (−: >10 mM) | − (−: >10 mM) | 
0.23 | OCCCCCCCCCCCCc1cc(O)ccc1O [Synthesis Example E-(31), 2-(12-hydroxydodecyl)benzene-1,4-diol] |  |  |  | IC50 [1, 6]: 6 µM
0.23 | OCCCCCCCCCCCCCCCCCCc1cc(O)ccc1O [Synthesis Example E-(32), 2-(18-hydroxyoctadecyl)benzene-1,4-diol] |  |  |  | IC50 [1, 6]: 6 µM
1.53 | CCCCCCCCCCCCCCCCc1cc(O)ccc1O [Synthesis Example E-(33), 2-hexadecylbenzene-1,4-diol] |  | + | + | 
0.23 | OCCCCCCCCCCCCCCCc1cc(O)ccc1O [Synthesis Example E-(34), 2-(15-hydroxypentadecyl)benzene-1,4-diol] |  |  |  | IC50 [1, 6]: 6 µM
0.23 | Cc1c(C)c2c(c(C)c1O)CCC(C)(C(=O)O)O2 (stereo not shown) [Trolox ®, reference compound] |  |  |  | IC50 [1, 6]: 600 µM
 | CC1=C(CCCCCCCCCCCCCCCO)C(C)(C)CCC1=O [tCFA15, 3-(15-hydroxypentadecyl)-2,4,4-trimethyl-2-cyclohexen-1-one] |  |  |  | axonal growth-promoting activity in a previous study (in words) (E15 neurons [4]): showed similar results
